Data reported in US8444858B2, “Control of development of biofilms in industrial process water” (A.Y. Laboratories Ltd., priority 2001, dated 2013).

Key:
biofilm [1] = assay: Waste water fouling control in a 7 km pipe, Hazen-Williams coefficient
Method: Treated wastewater was piped from a wastewater treatment plant to a location 7 kilometers away.
(The Hazen-Williams coefficient is used to express water flow through industrial pipes. It is calculated using the formula
[formula] wherein P is the friction pressure drop expressed in pounds per square inch per 1000 feet of pipe length, B is the flow rate in barrels per hour, s is the specific gravity of the liquid, C=a friction factor (the Hazen-Williams coefficient), and d is the internal diameter of the pipe in inches. P and B are measured for a given pipe, s and d are treated as constants, and C is calculated. The results are presented as the Hazen-Williams coefficient.
Waste water (up to 10 m^3/h) was used to appropriately dilute both chemicals. An on-line pH meter controlled the production process and the hypochlorite feeding rate to ensure the production of a stable biofilm inhibiting substance. The biofilm inhibiting substance was injected into the treated waste pipe as it was produced. Concentration of the biofilm inhibiting substance stock solution was 3000-4000 ppm; the pH was maintained at 9.5-10.

biofilm [2] = assay: Pilot plant wastewater pipes, difference in Hazen-Williams coefficient treated vs control pipe; settings: for HW Diff. treated pipe - Control: single 3 h treatment on day 1 at 10 ppm as total chlorine
Method: Treated wastewater was pumped through several pipes of 10 m length and 4 inches inner diameter in a pilot plant. […] Pressure drop through each pipe was monitored on-line, and average HW coefficients were calculated.
The biofilm inhibiting substance in this example was produced as follows, using a small feeding system was built specifically for this trial. […] The concentration of the biofilm inhibiting substance pre-injection solution was ˜3600 ppm and the pH was 9.2-9.6. […]

catalase (Merck) = assay: Inactivation of catalase, residual H2O2 laboratory test; assay type: biochemical
Method: Freshly prepared biofilm inhibiting substance was added to the appropriate flasks containing diluted catalase at a pre-defined feed rate. The contents of the containers were mixed for 60 minutes at room temperature prior to addition of H2O2 (to a final H2O2 concentration of 3.5 g/l). After addition of the H2O2, the mixture was allowed to mix for 30 minutes at room temperature, at which point H2O2 residues were measured in each flask in accordance with the Dr. Lange Cuvette Test LCW 058, measured with LASA 20 (based on Jander/Blasius: Lehrbach der Analytischen and Praparative Anorganischen Chemie, as described in the Handbook of Photometrical Operation Analysis (October 1997)).
Sodium hypochlorite was diluted in DI water to a final concentration of 6000 ppm expressed as total chlorine. Ammonium bromide solution (equimolar to 1.1 mole of the diluted sodium hypochlorite solution, 10% excess on a molar basis) and ammonium chloride solution (equimolar to 1.1 mole of the diluted hypochlorite solution, 10% excess on a molar basis) were prepared. The diluted hypochlorite (50 ml) was added dropwise to 50 ml of the appropriate ammonium salt while the pH was constantly measured. The biofilm inhibiting substance concentration in the produced stock solution was immediately measured and the biofilm inhibiting substance at the appropriate feed level was immediately added to the test flasks.

[3] = De-inking plant field trial, residual H2O2, residual biofilm inhibiting substance and H2O2 consumption
Method: A de-inking system had been using 7-10 kg H2O2 per ton of waste paper.
The reaction pH was Maintained at 9.8-10.0. The Production process was controlled to ensure synchronous metering of the two chemicals, continuous mixing at the predetermined molar ratio and reproducible production of a stable biofilm inhibiting substance stock solution for the duration of the trial and longer. […] After 850 minutes the dosing rate was reduced to 85 g/ton expressed as total Cl2 by feeding the biofilm inhibiting substance semi-continuously. Various parameters were monitored during start-up of the trial: Residual biofilm inhibiting substance was measured (using a Hach pocket colorimeter, total Cl2, based on the DPD method adapted from Standard Methods for Examination of Waste and Waste Water). […] When necessary, samples were diluted with DI water.

bromide activated chloramine [Fuzzicide BAC]
Hazen-Williams coefficient (HW) maintenance (biofilm [1]; 10 ppm as total chlorine for three hours once a week, over a period of months, after cleaning): constant value
Hazen-Williams coefficient (HW) (biofilm [1]; 10 ppm as total chlorine once a day for three hours for 6 consecutive days, HW before ~90): ~104
Hazen-Williams coefficient (HW) (biofilm [1]; combination of pigging and 10 ppm (as total Cl2) once a day for three hours, HW before ~104): ~116
HW Diff. treated pipe - Control (biofilm [2]; day 1): 14.3
HW Difference, Fuzzicide BAC - Control (biofilm [2]; day 1 of trial (treatment day), 10 ppm as total chlorine for 3 h three times a week): 10.12
HW Diff. treated pipe - Control (biofilm [2]; day 2): 13.7
HW Difference, Fuzzicide BAC - Control (biofilm [2]; day 2 of trial, 10 ppm as total chlorine for 3 h three times a week): 11.25
HW Diff. treated pipe - Control (biofilm [2]; day 3): 12.8
HW Difference, Fuzzicide BAC - Control (biofilm [2]; day 3 of trial, 10 ppm as total chlorine for 3 h three times a week): 11.62
HW Diff. treated pipe - Control (biofilm [2]; day 4): 16.5
HW Difference, Fuzzicide BAC - Control (biofilm [2]; day 4 of trial, 10 ppm as total chlorine for 3 h three times a week): 13.04
HW Diff. treated pipe - Control (biofilm [2]; day 5): 16.0
HW Difference, Fuzzicide BAC - Control (biofilm [2]; day 5 of trial (treatment day), 10 ppm as total chlorine for 3 h three times a week): 12.35
HW Diff. treated pipe - Control (biofilm [2]; day 6): 16.55
HW Difference, Fuzzicide BAC - Control (biofilm [2]; day 6 of trial, 10 ppm as total chlorine for 3 h three times a week): 13.76
HW Diff. treated pipe - Control (biofilm [2]; day 7): 15.8
HW Difference, Fuzzicide BAC - Control (biofilm [2]; day 7 of trial, 10 ppm as total chlorine for 3 h three times a week): 15.13
HW Diff. treated pipe - Control (biofilm [2]; day 8): 14.3
HW Diff. treated pipe - Control (biofilm [2]; day 9): 16.9
HW Diff. treated pipe - Control (biofilm [2]; day 10): 15.3
HW Diff. treated pipe - Control (biofilm [2]; day 11): 16.0
HW Diff. treated pipe - Control (biofilm [2]; day 12): 18.1
HW Diff. treated pipe - Control (biofilm [2]; day 13): 17.2
HW Diff. treated pipe - Control (biofilm [2]; day 14): 15.0
HW Diff. treated pipe - Control (biofilm [2]; day 15): 11.9
HW Diff. treated pipe - Control (biofilm [2]; day 16): 9.1
HW Diff. treated pipe - Control (biofilm [2]; day 17): 7.3
HW Diff. treated pipe - Control (biofilm [2]; day 18): 7.2
HW Difference, Fuzzicide BAC - Control (biofilm [2]; day 26 of trial, between days 7 and 26 the biocide was improperly prepared, rendering it ineffective): 6.11
HW Difference, Fuzzicide BAC - Control (biofilm [2]; day 27 of trial (treatment day), 10 ppm as total chlorine for 3 h three times a week): 6.67
HW Difference, Fuzzicide BAC - Control (biofilm [2]; day 28 of trial, 10 ppm as total chlorine for 3 h three times a week): 7.13
HW Difference, Fuzzicide BAC - Control (biofilm [2]; day 29 of trial (treatment day), 10 ppm as total chlorine for 3 h three times a week): 8.75
HW Difference, Fuzzicide BAC - Control (biofilm [2]; day 30 of trial, 10 ppm as total chlorine for 3 h three times a week): 8.93
HW Difference, Fuzzicide BAC - Control (biofilm [2]; day 31 of trial, 10 ppm as total chlorine for 3 h three times a week): 8.93
HW Difference, Fuzzicide BAC - Control (biofilm [2]; day 32 of trial, 10 ppm as total chlorine for 3 h three times a week): 9.02
HW Difference, Fuzzicide BAC - Control (biofilm [2]; day 33 of trial (treatment day), 10 ppm as total chlorine for 3 h three times a week): 8.89
HW Difference, Fuzzicide BAC - Control (biofilm [2]; day 34 of trial, 10 ppm as total chlorine for 3 h three times a week): 8.93
HW Difference, Fuzzicide BAC - Control (biofilm [2]; day 35 of trial, 10 ppm as total chlorine for 3 h three times a week): 9.12
HW Difference, Fuzzicide BAC - Control (biofilm [2]; day 36 of trial (treatment day), 10 ppm as total chlorine for 3 h three times a week): 10.31
HW Difference, Fuzzicide BAC - Control (biofilm [2]; day 37 of trial, 10 ppm as total chlorine for 3 h three times a week): 9.96
HW Difference, Fuzzicide BAC - Control (biofilm [2]; day 38 of trial, 10 ppm as total chlorine for 3 h three times a week): 13.97
Residual H2O2 concentration, % of 3.5% g/l (catalase (Merck); BIS 8.1 ppm as total chlorine, catalase 26 units/ml, 60 min preincubation, 30 min after H2O2): 21.4 % of 3.5% g/l
Residual H2O2 concentration, % of 3.5% g/l (catalase (Merck); BIS 60 ppm as total chlorine, catalase 0 units/ml (no enzyme)): 100 % of 3.5% g/l
Residual H2O2 concentration, % of 3.5% g/l (catalase (Merck); BIS 60 ppm as total chlorine, catalase 26 units/ml): 100 % of 3.5% g/l
Residual H2O2 concentration, % of 3.5% g/l (catalase (Merck); BIS 140 ppm as total chlorine, catalase 26 units/ml): 100 % of 3.5% g/l
H2O2 feed rate maintaining de-inking bleaching targets ([3]; after a few more days of semi-continuous dosing): ~2.2 kg/ton
feed rate of H2O2 needed in order to maintain bleaching set point ([3]; after about 48 hours of semi-continuous dosing, before trial 7-10 kg H2O2 per ton of waste paper): ~4 kg/ton
